Results as given in the SangsterLogP compilation.

Assay: not given
Conditions: not given

SMILES | logP
COc1ccc(N2Cn3c(nc4ccccc4c3=O)C2C)cc1 (stereo not given) | 1.73
Cc1ccc(N2Cn3c(nc4ccccc4c3=O)C2C)cc1 (stereo not given) | 2.16
CC1c2nc3ccccc3c(=O)n2CN1CCc1ccccc1 (stereo not given) | 1.8

The next lines start with the values.

logP | SMILES
1.78 | CC1c2nc3ccccc3c(=O)n2CN1c1ccccc1 (stereo not given)
1.74 | CC1c2nc3ccccc3c(=O)n2CN1Cc1ccccc1 (stereo not given)

Assay: method code SF-AS, from DOI: 10.1080/01483919008048971
Conditions: pH 5.0

SMILES | logD
CCN1Cn2c(nc3ccccc3c2=O)C1C (stereo not given) | 1.02
CCCN1Cn2c(nc3ccccc3c2=O)C1C (stereo not given) | 1.4

Further lines, results first:

logD | SMILES
1.6 | CCCCN1Cn2c(nc3ccccc3c2=O)C1C (stereo not given)
0.85 | CC1c2nc3ccccc3c(=O)n2CN1C (stereo not given)
0.46 | CC1c2nc3ccccc3c(=O)n2CN1CCO (stereo not given)
